Data reported in PubChem BioAssay (NCI).
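In this assay, cells in 96-well plates receive the compound at five concentrations for 48 hours. Endpoints are linearly interpolated between the surrounding concentrations. GI50: concentration for 50% inhibition of growth. TGI denotes the concentration required for complete inhibition of growth.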

Key:
Assay in all cases: NCI-60 cell line screen, 48 h
NCI-H23 lung = test system: NCI-H23 lung
HOP-62 NSCLC = test system: HOP-62 NSCLC
786-0 renal = test system: 786-0 renal
HL-60(TB) leukemia = test system: HL-60(TB) leukemia
SNB-75 CNS = test system: SNB-75 CNS
TK-10 renal = test system: TK-10 renal
A549 NSCLC = test system: A549 NSCLC
XF 498 CNS = test system: XF 498 CNS
DLD-1 colon = test system: DLD-1 colon
KM20L2 colon = test system: KM20L2 colon

`CC(C)[C@@H]1C=C2CC[C@H]3[C@](C)(CN)CCC[C@]3(C)[C@H]2CC1` was tested, and the GI50 (NCI-H23 lung) was 1.94 µM, the TGI (NCI-H23 lung) was 4.09 µM and the GI50 (HOP-62 NSCLC) was 3.33 µM. It also gave a TGI (HOP-62 NSCLC) of 10.9 µM, a GI50 (786-0 renal) of 2.02 µM and a TGI (786-0 renal) of 4.1 µM. For the same molecule, the GI50 (HL-60(TB) leukemia) was 1.38 µM, the TGI (HL-60(TB) leukemia) was 4.39 µM and the GI50 (SNB-75 CNS) was 14.8 µM. It also gave a TGI (SNB-75 CNS) of 28.8 µM, a GI50 (TK-10 renal) of 12 µM and a TGI (TK-10 renal) of 25.3 µM. For the same molecule, the GI50 (A549 NSCLC) was 3.07 µM and the TGI (A549 NSCLC) was 11 µM.

`Nc1cc(NN=C(c2ccc(O)cc2)c2ccc(O)cc2)c([N+](=O)[O-])cc1[N+](=O)[O-]` showed a GI50 (NCI-H23 lung) of 2.31 µM, a TGI (NCI-H23 lung) of 6.07 µM and a GI50 (HOP-62 NSCLC) of 2.13 µM. The TGI (HOP-62 NSCLC) was 3.98 µM, the GI50 (786-0 renal) was 1.83 µM and the TGI (786-0 renal) was 3.43 µM. The GI50 (HL-60(TB) leukemia) was 3.04 µM, the TGI (HL-60(TB) leukemia) was 14 µM and the GI50 (SNB-75 CNS) was 1.45 µM. The TGI (SNB-75 CNS) was 3.92 µM, the GI50 (TK-10 renal) was 2.22 µM and the TGI (TK-10 renal) was 6.98 µM. For the same molecule, the GI50 (A549 NSCLC) was 2.29 µM and the TGI (A549 NSCLC) was 5.69 µM.

With `O=CNc1ccc2c(c1)C(=O)c1ccccc1-2` the TGI (NCI-H23 lung) was > 100 µM, the TGI (HOP-62 NSCLC) was > 100 µM and the TGI (786-0 renal) was > 100 µM. The TGI (HL-60(TB) leukemia) was > 100 µM, the TGI (SNB-75 CNS) was > 100 µM and the TGI (TK-10 renal) was > 100 µM. The TGI (A549 NSCLC) was > 100 µM.

In the case of `O=C1C=CC(=O)c2nc3c(cc21)CCC3`, the TGI (NCI-H23 lung) is reported as 64.6 µM, the TGI (HOP-62 NSCLC) is reported as > 100 µM and the TGI (786-0 renal) is reported as 33.4 µM. The TGI (XF 498 CNS) was 32.9 µM, the TGI (SNB-75 CNS) was > 100 µM and the TGI (TK-10 renal) was 32.7 µM. The TGI (DLD-1 colon) was 36 µM and the TGI (A549 NSCLC) was > 100 µM.

`O=C(Nc1ccc(Oc2ccc(Nc3nc4ccccc4s3)cc2)cc1)Nc1ccc(Cl)c(C(F)(F)F)c1` gave a GI50 (NCI-H23 lung) of 1.06 µM, a TGI (NCI-H23 lung) of 2.77 µM and a GI50 (HOP-62 NSCLC) of 1.82 µM. It also gave a TGI (HOP-62 NSCLC) of 4.03 µM, a GI50 (786-0 renal) of 1.79 µM and a TGI (786-0 renal) of 4.63 µM. For the same molecule, the GI50 (HL-60(TB) leukemia) was 2.21 µM, the TGI (HL-60(TB) leukemia) was 5.59 µM and the GI50 (SNB-75 CNS) was 1.41 µM. It also gave a TGI (SNB-75 CNS) of 5.27 µM, a GI50 (TK-10 renal) of 2.3 µM and a TGI (TK-10 renal) of 5.35 µM. The GI50 (A549 NSCLC) was 1.97 µM and the TGI (A549 NSCLC) was 6.26 µM.

`O=S(=O)(N/N=C/c1cccc(/C=N/NS(=O)(=O)c2ccccc2)c1)c1ccccc1` was tested, and the TGI (NCI-H23 lung) was > 100 µM, the TGI (KM20L2 colon) was > 100 µM and the TGI (HOP-62 NSCLC) was > 100 µM. The TGI (786-0 renal) was > 100 µM, the TGI (HL-60(TB) leukemia) was > 100 µM and the TGI (SNB-75 CNS) was > 100 µM. For the same molecule, the TGI (TK-10 renal) was > 100 µM, the TGI (DLD-1 colon) was > 100 µM and the TGI (A549 NSCLC) was > 100 µM.

With `Nc1ccc(C2=NNC(=O)Cc3cc4c(cc32)OCCO4)cc1Cl` the GI50 (NCI-H23 lung) was 5.28 µM, the TGI (NCI-H23 lung) was > 50 µM and the GI50 (HOP-62 NSCLC) was 5.12 µM. The TGI (HOP-62 NSCLC) was > 50 µM, the GI50 (786-0 renal) was 6.51 µM and the TGI (786-0 renal) was > 50 µM. For the same molecule, the GI50 (HL-60(TB) leukemia) was 1.72 µM, the TGI (HL-60(TB) leukemia) was 12.3 µM and the GI50 (SNB-75 CNS) was 2 µM. The TGI (SNB-75 CNS) was 27.9 µM, the GI50 (TK-10 renal) was 18.9 µM and the TGI (TK-10 renal) was > 50 µM. For the same molecule, the GI50 (A549 NSCLC) was 2.95 µM and the TGI (A549 NSCLC) was > 50 µM.

For `CCCCN(CCCC)C(=O)C(=O)C(C(=O)c1ccc(OC)cc1)c1ccc(OC)cc1` (stereo not drawn), the TGI (NCI-H23 lung) was > 100 µM, the TGI (KM20L2 colon) was > 100 µM and the TGI (HOP-62 NSCLC) was > 100 µM. For the same molecule, the TGI (786-0 renal) was > 100 µM, the TGI (HL-60(TB) leukemia) was > 100 µM and the TGI (TK-10 renal) was > 100 µM. For the same molecule, the TGI (DLD-1 colon) was > 100 µM and the TGI (A549 NSCLC) was > 100 µM.

`COc1ccc2nc3cc(Cl)ccc3c(NCCNCC(C)O)c2c1` (stereo not drawn) gave a GI50 (NCI-H23 lung) of 1.93 µM, a TGI (NCI-H23 lung) of 6.16 µM and a GI50 (HOP-62 NSCLC) of 1.31 µM. For the same molecule, the TGI (HOP-62 NSCLC) was 4.09 µM, the GI50 (786-0 renal) was 1.68 µM and the TGI (786-0 renal) was 5.83 µM. It also gave a GI50 (HL-60(TB) leukemia) of 1.9 µM, a TGI (HL-60(TB) leukemia) of 6.05 µM and a GI50 (SNB-75 CNS) of 1.9 µM. For the same molecule, the TGI (SNB-75 CNS) was 8.71 µM, the GI50 (TK-10 renal) was 2.85 µM and the TGI (TK-10 renal) was 8.28 µM. The GI50 (A549 NSCLC) was 1.52 µM and the TGI (A549 NSCLC) was 3.16 µM.

With `CCn1c(-c2nonc2N)nc2c(C#CC(C)(C)O)nc(OC[C@@H](N)c3ccccc3)cc21` the GI50 (NCI-H23 lung) was 5.13 µM, the TGI (NCI-H23 lung) was 10.8 µM and the GI50 (HOP-62 NSCLC) was 6.09 µM. For the same molecule, the TGI (HOP-62 NSCLC) was 10.2 µM, the GI50 (786-0 renal) was 2.98 µM and the TGI (786-0 renal) was 6.35 µM. For the same molecule, the GI50 (HL-60(TB) leukemia) was 5.23 µM, the TGI (HL-60(TB) leukemia) was 10.3 µM and the GI50 (SNB-75 CNS) was 2.45 µM. For the same molecule, the TGI (SNB-75 CNS) was 5.66 µM, the GI50 (TK-10 renal) was 5.09 µM and the TGI (TK-10 renal) was 11.3 µM. It also gave a GI50 (A549 NSCLC) of 4.36 µM and a TGI (A549 NSCLC) of 9.18 µM.

With `Nc1n[nH]c2cc(F)c([C@@H]3Nc4ccc5[nH]ncc5c4[C@H]4C5CCC(C5)[C@@H]34)cc12` (stereo partly drawn) the GI50 (NCI-H23 lung) was 0.193 µM, the TGI (NCI-H23 lung) was 7.77 µM and the GI50 (HOP-62 NSCLC) was 0.222 µM. The TGI (HOP-62 NSCLC) was 9.12 µM, the GI50 (786-0 renal) was 0.25 µM and the TGI (786-0 renal) was 12 µM. The GI50 (HL-60(TB) leukemia) was 0.149 µM, the TGI (HL-60(TB) leukemia) was 1.67 µM and the GI50 (SNB-75 CNS) was 0.0988 µM. For the same molecule, the TGI (SNB-75 CNS) was 1.12 µM, the GI50 (TK-10 renal) was 3.46 µM and the TGI (TK-10 renal) was > 50 µM. The GI50 (A549 NSCLC) was 0.201 µM and the TGI (A549 NSCLC) was > 50 µM.

`COC[C@H]1Cn2cc(-c3nc(Nc4ccnn4C)ncc3C)nc2C(=O)N1Cc1ccc(F)c(F)c1` was tested, and the GI50 (NCI-H23 lung) was 0.181 µM, the TGI (NCI-H23 lung) was > 100 µM and the GI50 (HOP-62 NSCLC) was 1.15 µM. For the same molecule, the TGI (HOP-62 NSCLC) was > 100 µM, the GI50 (786-0 renal) was 88 µM and the TGI (786-0 renal) was > 100 µM. It also gave a GI50 (HL-60(TB) leukemia) of 0.471 µM, a TGI (HL-60(TB) leukemia) of 10.6 µM and a GI50 (SNB-75 CNS) of 9.59 µM. For the same molecule, the TGI (SNB-75 CNS) was > 100 µM, the GI50 (TK-10 renal) was 5.5 µM and the TGI (TK-10 renal) was > 100 µM. For the same molecule, the GI50 (A549 NSCLC) was 3.23 µM and the TGI (A549 NSCLC) was > 100 µM.

With `O=c1c(-c2ccccc2)c2oc(c1-c1ccccc1)CSCc1cccc(c1)CSC2` the TGI (NCI-H23 lung) was > 100 µM, the TGI (KM20L2 colon) was > 100 µM and the TGI (HOP-62 NSCLC) was 62.4 µM. The TGI (786-0 renal) was 89.8 µM, the TGI (HL-60(TB) leukemia) was > 100 µM and the TGI (SNB-75 CNS) was 69.1 µM. The TGI (TK-10 renal) was > 100 µM, the TGI (DLD-1 colon) was > 100 µM and the TGI (A549 NSCLC) was > 100 µM.
